Data from article PMC8544245 (Journal of medicinal chemistry, 2020).
“And” between values parts separate entries of the source, which are not always exact repeats. Equal entries are not always repeated. Where two headings read alike, the source gives them in different places. Non-standard residues stand in square brackets, D forms with d. Residues, ends and D or L forms follow the SMILES beside them. *: point of attachment. d(hPhe) = N[C@H](CCc1ccccc1)C(=O)O; Bn = c1ccc(C*)cc1; NHOH = ON*

Tests used:
MMP-13 [1] = target: T1, MMP-13 (Homo sapiens, UniProt P45452); experiment: SensoLyte 520 Fluorimetric Assay Kit selectivity assay, MMP-13; format: biochemical; settings: agents tested at 25 nM or at 4 nM (Figure 5)
MMP-1 [2] = target: T2, MMP-1 (Homo sapiens, UniProt P03956); experiment: SensoLyte 520 Fluorimetric Assay Kit selectivity assay, MMP-1; format: biochemical; settings: agents tested at 25 nM or at 4 nM (Figure 5)
T2 sequence (P03956 100-269 limits assumed): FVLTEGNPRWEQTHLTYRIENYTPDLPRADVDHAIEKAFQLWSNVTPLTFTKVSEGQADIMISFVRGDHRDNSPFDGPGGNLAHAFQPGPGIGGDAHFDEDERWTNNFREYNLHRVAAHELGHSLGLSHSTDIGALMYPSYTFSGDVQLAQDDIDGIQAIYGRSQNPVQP

MMP-14 [3] = target: T3, MMP-14 (Homo sapiens, UniProt P50281); experiment: SensoLyte 520 Fluorimetric Assay Kit selectivity assay, MMP-14; format: biochemical; settings: agents tested at 25 nM or at 4 nM (Figure 5)
hMMP-12 [4] = target: T4, hMMP-12 (Homo sapiens, UniProt P39900); experiment: SensoLyte 520 MMP-12 Fluorimetric Assay Kit enzymatic inhibition assay; format: biochemical
T4 sequence (P39900 106-263): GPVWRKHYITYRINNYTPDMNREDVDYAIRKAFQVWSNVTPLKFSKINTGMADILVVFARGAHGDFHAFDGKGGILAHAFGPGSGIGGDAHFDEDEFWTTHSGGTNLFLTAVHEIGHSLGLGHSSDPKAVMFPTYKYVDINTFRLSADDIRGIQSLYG

MMP-9 [5] = target: T5, MMP-9 (Homo sapiens, UniProt P14780); experiment: SensoLyte 520 Fluorimetric Assay Kit selectivity assay, MMP-9; format: biochemical; settings: agents tested at 25 nM or at 4 nM (Figure 5)
T5 sequence (P14780 107-444 limits assumed): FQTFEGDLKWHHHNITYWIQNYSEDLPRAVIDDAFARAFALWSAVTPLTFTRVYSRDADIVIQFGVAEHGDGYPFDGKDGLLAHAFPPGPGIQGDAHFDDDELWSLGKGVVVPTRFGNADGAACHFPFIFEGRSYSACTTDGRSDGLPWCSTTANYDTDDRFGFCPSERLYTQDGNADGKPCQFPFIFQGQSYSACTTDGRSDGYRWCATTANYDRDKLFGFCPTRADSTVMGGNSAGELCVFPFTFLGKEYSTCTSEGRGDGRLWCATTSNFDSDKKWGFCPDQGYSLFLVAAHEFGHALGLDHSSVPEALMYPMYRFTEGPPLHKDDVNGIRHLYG

MMP-3 [6] = target: T6, MMP-3 (Homo sapiens, UniProt P08254); experiment: SensoLyte 520 Fluorimetric Assay Kit selectivity assay, MMP-3; format: biochemical; settings: agents tested at 25 nM or at 4 nM (Figure 5)
T6 sequence (P08254 100-272 limits assumed): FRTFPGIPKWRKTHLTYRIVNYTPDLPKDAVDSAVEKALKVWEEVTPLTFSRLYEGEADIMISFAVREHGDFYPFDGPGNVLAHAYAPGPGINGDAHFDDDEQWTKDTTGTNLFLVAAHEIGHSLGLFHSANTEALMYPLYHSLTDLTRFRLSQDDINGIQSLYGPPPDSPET

[7] = tested on: elastase-induced emphysema (lung tissue destruction); experiment: Murine model of elastase-induced emphysema, mean linear intercept; format: in vivo, C57BL/6 mice; settings: PPE intranasal, i.p. treatment once daily for 7 days from day 2, read at day 21
MMP-9 [8] = target: T5, MMP-9; settings: even at 1 μM; cited from earlier work
MMP-13 [9] = target: T1, MMP-13; settings: even at 1 μM; cited from earlier work
MMP-14 [10] = target: T3, MMP-14; settings: even at 1 μM; cited from earlier work
hMMP-12 [11] = target: T4, hMMP-12; settings: read-out: IC50 for hMMP-12 inhibition; dose response (Figure 2B); cited from earlier work
MMP-3 [12] = target: T6, MMP-3; settings: at 55 nM; cited from earlier work
MMP-1 [13] = target: T2, MMP-1; settings: even at 1 μM; cited from earlier work
[14] = format: in vivo; settings: 30 mg/kg i.p., Balb-C mice; converted from ng/ml
[15] = Solubility in the dosing formulation; format: physicochemical; settings: 10% DMSO, 40% PEG400, and 10% (2-hydroxypropyl)-Beta-cyclodextrin in PBS

SMILES | inhibition of MMP-13 (MMP-13 [1]) | inhibition of MMP-1 (MMP-1 [2]) | inhibition of MMP-14 (MMP-14 [3]) | mode of hMMP-12 inhibition (hMMP-12 [4]) | inhibition of MMP-9 (MMP-9 [5]) | inhibition of MMP-3 (MMP-3 [6]) | emphysema-like pathology (MLI) compared to PPE + vehicle-treated mice [7] | further results
COc1ccc(CCC[C@H](NC(=O)CN2CCOCC2)C(=O)N[C@H](CCc2ccc(OC)cc2)C(=O)N[C@H](Cc2ccc(C)cc2)C(=O)NO)cc1 [compound 26] | did not display significant inhibition | did not display significant inhibition | did not display significant inhibition | competitive inhibitors | did not display significant inhibition | appreciable inhibition | significant decrease | –
CC(=O)N[C@@H](COCc1ccccc1)C(=O)N[C@H](CCc1ccccc1)C(=O)N[C@H](Cc1ccccc1)C(=O)NO [compound 1] (Ac-Ser(Bn)-[d(hPhe)]-[dF]-{NHOH}) | – | – | – | – | – | – | – | inhibition of MMP-9 (MMP-9 [8]): did not significantly inhibit; inhibition of MMP-13 (MMP-13 [9]): did not significantly inhibit; inhibition of MMP-14 (MMP-14 [10]): did not significantly inhibit; IC50 (hMMP-12 [11]): ~30 nM and 29.7 nM; inhibition of MMP-3 (MMP-3 [12]): ~ 19%; inhibition of MMP-1 (MMP-1 [13]): did not significantly inhibit
CNC(=O)[C@H](Cc1c[nH]c2ccccc12)NC(=O)[C@@H](CC(=O)NO)CC(C)C [GM6001, reference compound] | – | – | – | – | – | appreciable inhibition | – | –
COC(=O)Nc1ccc2oc3cc(S(=O)(=O)N[C@H](C(=O)O)C(C)C)ccc3c2c1 [MMP408, (S)-2-(8-(methoxycarbonylamino)dibenzo[b,d]furan-3-sulfonamido)-3-methylbutanoic acid, reference compound] | – | – | – | – | – | – | significant decrease | –
COc1ccc(CC[C@@H](NC(=O)[C@H](CCCc2ccccc2)NC(=O)CN2CCOCC2)C(=O)N[C@H](Cc2ccc(C)cc2)C(=O)NO)cc1 [compound 25] | did not display significant inhibition | did not display significant inhibition | did not display significant inhibition | competitive inhibitors | did not display significant inhibition | appreciable inhibition | significant decrease | peak plasma drug concentration [14]: ~ 580 nM; solubility in formulation [15]: soluble
